Series [1] concerns the target T1, hemoglobin (Homo sapiens, UniProt P68871+P69905).
T1 construct: The whole blood samples were collected in heparinized tubes from healthy volunteers; from tissue; host or cells: human whole blood (heparinized) from healthy volunteers
The series is described as follows: In vitro whole blood studies (multi-point tonometry and blood gas analysis). In kind it is cell-based. The settings on record: for ΔP50 ± S.D. (P50 effector − P50control) / P50e (P50 value in the presence of the effector): Table VI, 2.5 mM Hb, 5.0 mM effector; for P50e (P50 value in the presence of the effector): single runs, DMSO stock. Here is the method:
(§1) Structure-allosteric activity relationships were determined from the synthetic chiral effectors comparing the shift in the oxygen binding curve of Hb solutions using a Hemox-Analyzer. In vitro biological activity testing in the presence of plasma proteins was also performed on selected enantiomers and racemates (multi-point tonometry and blood gas analysis) to screen for candidates with potential clinical use. SAR studies compared the degree in shift in P50 values, i.e., the partial pressure of molecular oxygen necessary to half-saturate hemoglobin. An effector that decreases Hb oxygen affinity increases the P50 value relative to the control. Thus, the activity or potency of each analog could be expressed by the ratio P50 (effector)/P50(control). Tables and II and III summarize the p50 values obtained using human whole blood, while Tables IV and V summarize the P50 and the Hill coefficient values (n50) at half-saturation obtained using Hemox-analyzer. The slope of the log of the oxygen binding curves is known as the Hill coefficient. The Hill coefficient measures the degree of cooperativity in binding for an allosteric protein, the normal range for human blood is 2.7-3.2. Table VI presents the results from the whole blood studies given as a ΔP50 and Hill coefficient (n50) values for the enantiomers and racemates.
The whole blood samples were collected in heparinized tubes from healthy volunteers and stored over ice. The sodium salts of the compounds were prepared as described earlier. A 200 mM stock solution of the effector was prepared in DMSO. A 5.0 mM test solution was prepared from 50 μL of the 200 mM test solution and 1950 μL of whole blood. The blood samples were incubated in IL 237 tonometers (Instrumentation Laboratories, Inc. Lexington, Mass.) for approximately 10-12 min at 37° C. and equilibrated at three separate concentrations of O2 (20%, 40%, and 60%). After equilibration at each concentration of O2, a sample was removed via syringe and aspirated into a IL 1420 Automated Blood Gas Analyzer (Instrumentation Laboratories, Inc. Lexington, Mass.) and a IL 482 and IL 682 Co-oximeter (Instrumentation Laboratories, Inc. Lexington, Mass.) to determine the pH, pCO2, pO2 and the hemoglobin oxygen saturation values (sO2), respectively. The measured values for pO2 and sO2 at each oxygen saturation level were then subjected to a non-linear regression analysis using the program Scientist (Micromath, Salt Lake City, Utah) to calculate the P50 and Hill coefficient values.

Series [2] has as its target T2, purified stripped human adult hemoglobin (Homo sapiens, UniProt P68871+P69905).
T2 construct: using purified stripped human adult hemoglobin as described previously; from tissue
The experiment in a line: Hemoglobin solution oxygen equilibrium studies (HEMOX-analyzer). In kind it is biochemical. The note with it: for n50 (Hill coefficient at 50% saturation): n50 control 2.7; for P50e/P50c: ratio to P50 control with no effector (5.0 mmHg). The method, then: as §1, with “Tables and II and III summarize the p50 values obtained using human whole blood, while Tables IV and V summarize the P50 and the Hill coefficient values (n50) at half-saturation obtained using Hemox-analyzer.” left out, “2.7-3.2.” for “2.7-3.2. Table VI presents the results from the whole blood studies given as a ΔP50 and Hill coefficient (n50) values for the enantiomers and racemates.”
The effectors were prepared as 10 mM stock solutions in 100 mM NaCl bis-Tris buffer, pH 7.2. After the addition of an excess of NaHCO3, the solution was warmed to 60° C. and stirred for several hours. The solutions were back titrated carefully to pH 7.2 at 25° C. prior to use. Oxygen equilibrium measurements were performed with the HEMOX-analyzer (TCS Medical products, Southampton, Pa.) using purified stripped human adult hemoglobin as described previously. 4 mL of buffer, 100 mM NaCl, 50 mM bis-Tris at pH 7.2, is added to a cuvette in the HEMOX, followed by 200 μL of the 10 mM effector stock solution. Hemoglobin is then added to achieve a final Hb concentration of […] on heme basis. Catalase (20 μg/mL) and 50 mM EDTA were added to limit oxidation of the hemes. […] The saturation of hemoglobin was determined spectrophotometrically with a dual wavelength spectrophotometer (577 nm and 586.2 nm). The solution was stirred constantly during the 45-60 min recordings. The P50 and n50 values were calculated by linear regression analysis from data points comprised between 40 and 60% oxygen saturation.

Series [3] addresses T2, purified stripped human adult hemoglobin. The series is described as above. In kind it is biochemical. The note with it: 0.5 mM effector, 100 mM bis-Tris buffer, pH 7.2.
Where [4] appears, read: Table IV, 0.5 mM effector, pH 7.2.

Where “and” joins values, the source holds several entries; their conditions need not be identical. Identical values can stand only once.

T1 sequence (P69905 2-142 limits assumed): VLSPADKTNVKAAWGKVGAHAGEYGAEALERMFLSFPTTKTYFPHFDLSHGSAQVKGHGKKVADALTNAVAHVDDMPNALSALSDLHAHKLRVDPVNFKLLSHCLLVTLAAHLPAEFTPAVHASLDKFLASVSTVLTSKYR
T1 sequence (P68871 2-147 limits assumed): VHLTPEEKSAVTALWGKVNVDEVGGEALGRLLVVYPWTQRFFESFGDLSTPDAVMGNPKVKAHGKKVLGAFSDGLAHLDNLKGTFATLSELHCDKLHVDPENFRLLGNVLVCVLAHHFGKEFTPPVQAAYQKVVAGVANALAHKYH
T2 sequence (P69905 2-142 limits assumed): as the sequence (P69905 2-142 limits assumed) above
T2 sequence (P68871 2-147 limits assumed): as the sequence (P68871 2-147 limits assumed) above

For orientation: melting point means the temperature, or range, at which the solid turns liquid. `Cc1cc(C)cc(NC(=O)Cc2ccc(OC3(C(=O)N[C@@H](Cc4ccc(O)cc4)C(=O)O)CCCC3)cc2)c1` [Compound 54, 1-[4-(((3,5-dimethylanilino)carbonyl)methyl)phenoxy]cyclopentanecarbonyl-L-tyrosine] showed a melting point of 74 to 75 °C. Moreover, the “Whole Blood Δp50 mm Hg” value in series [1] (Table III) came to 21 mm Hg.

`CSCC[C@@H](NC(=O)C1(Oc2ccc(CC(=O)Nc3cc(C)cc(C)c3)cc2)CCCC1)C(=O)O` [Compound 51, 1-[4-(((3,5-dimethylanilino)carbonyl)methyl)phenoxy]cyclopentanecarbonyl-D-methionine]: the melting point is 54 to 55 °C. Moreover, the “Whole Blood Δp50 mm Hg” value in series [1] (Table III) is on record as 27 mm Hg.

As for `Cc1cc(C)cc(NC(=O)Cc2ccc(OC3(C(=O)N[C@H](C(=O)O)[C@@H](C)O)CCCC3)cc2)c1` [Compound 58, 1-[4-(((3,5-dimethylanilino)carbonyl)methyl)phenoxy]cyclopentanecarbonyl-L-threonine], the melting point lay in the range of 64 to 66 °C. For the same compound, the “Whole Blood Δp50 mm Hg” value in series [1] (Table III) was 13 mm Hg.

Regarding `Cc1cc(C)cc(NC(=O)Cc2ccc(OC3(C(=O)N[C@H](Cc4ccccc4)C(=O)O)CCCC3)cc2)c1` [Compound 44, 1-[4-(((3,5-dimethylanilino)carbonyl)methyl)phenoxy]cyclopentanecarbonyl-D-phenylalanine], the melting point is 106 to 108 °C. Further, the “Whole Blood Δp50 mm Hg” value in series [1] (Table III) is on record as 38 mm Hg.

For `Cc1cc(C)cc(NC(=O)Cc2ccc(OC3(C(=O)N[C@@H](CCCCN)C(=O)O)CCCC3)cc2)c1` [Compound 62, 1-[4-(((3,5-dimethylanilino)carbonyl)methyl)phenoxy]cyclopentanecarbonyl-L-lysine], the melting point was in the range of 124 to 125 °C. In addition, the “Whole Blood Δp50 mm Hg” value in series [1] (Table III) is −0.6 mm Hg.

The compound `Cc1cc(C)cc(NC(=O)Cc2ccc(OC3(C(=O)N[C@@H](C)C(=O)O)CCCC3)cc2)c1` [Compound 39, 1-[4-(((3,5-dimethylanilino)carbonyl)methyl)phenoxy] cyclopentanecarbonyl-L-alanine] showed a melting point of 117 to 118 °C. Besides, the “Whole Blood Δp50 mm Hg” value in series [1] (Table III) turned out to be 22 mm Hg.

For `CC[C@H](C)[C@H](NC(=O)C1(Oc2ccc(CC(=O)Nc3cc(C)cc(C)c3)cc2)CCCC1)C(=O)O` [Compound 53, 1-[4-(((3,5-dimethylanilino)carbonyl)methyl)phenoxy]cyclopentanecarbonyl-L-isoleucine], the melting point was in the range of 127 to 128 °C. The “Whole Blood Δp50 mm Hg” value in series [1] (Table III) came to 13 mm Hg.

In the case of `Cc1cc(C)cc(NC(=O)Cc2ccc(OC3(C(=O)N[C@H](CC(C)C)C(=O)O)CCCC3)cc2)c1` [Compound 40, 1-[4-(((3,5-dimethylanilino)carbonyl)methyl)phenoxy]cyclopentanecarbonyl-D-leucine], the melting point lay in the range of 119 to 120 °C. In addition, in series [1] (Table III), the “Whole Blood Δp50 mm Hg” value was determined as 40 mm Hg.

As to `Cc1cc(C)cc(NC(=O)Cc2ccc(OC(C)C(=O)O)cc2)c1` (single isomer, unassigned; (+)) [(+) 18, (+)-2-[4-[[(3,5-dimethylanilino)carbonyl]methyl]phenoxy]-propionic acid], in series [1], the “ΔP50 ± S.D. (P50 effector − P50control)” value is reported as 20.7 ± 0.7 mmHg; the “P50e (P50 value in the presence of the effector)” value was 47.4 mmHg and 48.7 mmHg. In addition, the “n50 (Hill coefficient at 50% saturation)” value in series [2] (Table V resolved enantiomers, 0.5 mM effector, pH 7.2) stood at 2.6. The P50e/P50c in series [2] (Table V resolved enantiomers) is reported as 2. The “P50e (oxygen pressure at which Hb is 50% saturated with oxygen in the presence of the effector)” value in series [3] (Table V resolved enantiomers) was found to be 9.8 mmHg.

On to `CCCC(C)(Oc1ccc(CC(=O)Nc2cc(C)cc(C)c2)cc1)C(=O)O` (stereo not drawn) [Compound 6, 2-[4-[[(3,5-dimethylanilino)carbonyl]methyl]phenoxy]-2-methylpentanoic acid], for which the “Whole Blood Δp50 mm Hg” value in series [1] (Table II) is 25.6 mm Hg. Further, in series [2] (setting [4]), the “n50 (Hill coefficient at 50% saturation)” value turned out to be 2.7 and the P50e/P50c turned out to be 2.3. In addition, the “P50e (oxygen pressure at which Hb is 50% saturated with oxygen in the presence of the effector)” value in series [3] (Table IV) was 12 mmHg.

For the compound `Cc1cc(C)cc(NC(=O)Cc2ccc(OC3(C(=O)O)CCCC3C)cc2)c1` (racemic) [Compound 1, 1-[4-[[(3,5-dimethylanilino)carbonyl]methyl]phenoxy]-2-methylcyclopentane carboxylic acid], the “Whole Blood Δp50 mm Hg” value in series [1] (Table II) amounted to 45.4 mm Hg. Further, in series [1], the “ΔP50 ± S.D. (P50 effector − P50control)” value came to 40.1 ± 0.9 mmHg; the “P50e (P50 value in the presence of the effector)” value was 66 mmHg and 67.2 mmHg. In addition, in series [2] (setting [4]), the “n50 (Hill coefficient at 50% saturation)” value stood at 2.3 and the P50e/P50c is 4.3. For the same compound, the “P50e (oxygen pressure at which Hb is 50% saturated with oxygen in the presence of the effector)” value in series [3] (Table IV) was found to be 22 mmHg.

As for `Cc1cc(C)cc(NC(=O)Cc2ccc(OC3(C(=O)N[C@H](Cc4c[nH]c5ccccc45)C(=O)O)CCCC3)cc2)c1` [Compound 46, 1-[4-(((3,5-dimethylanilino)carbonyl)methyl)phenoxy]cyclopentanecarbonyl-D-tryptophan], the melting point fell in the range of 83 to 84 °C. Besides, in series [1] (Table III), the “Whole Blood Δp50 mm Hg” value came to 20 mm Hg.

Regarding `Cc1cc(C)cc(NC(=O)Cc2ccc(OC(C)(C)C(=O)O)cc2)c1` [RSR13, reference compound], in series [1], the “ΔP50 ± S.D. (P50 effector − P50control)” value is recorded as 45.2 ± 2.2 mmHg; the “P50e (P50 value in the presence of the effector)” value is 76.5 mmHg and 73.4 mmHg. In addition, in series [2] (setting [4]), the “n50 (Hill coefficient at 50% saturation)” value worked out at 2.3 and the P50e/P50c came out at 4.7. In series [3] (Table IV), the “P50e (oxygen pressure at which Hb is 50% saturated with oxygen in the presence of the effector)” value is on record as 23 mmHg.

As to `Cc1cc(C)cc(NC(=O)Cc2ccc(OC3(C(=O)O)CCCC3)cc2)c1` [JP7, 1-[4-(((3,5-dimethylanilino)carbonyl)methyl)phenoxy]cyclopentanecarboxylic acid, reference compound], in series [1], the “ΔP50 ± S.D. (P50 effector − P50control)” value came to 42.3 ± 4.9 mmHg; the “P50e (P50 value in the presence of the effector)” value was 74.7 mmHg and 67.7 mmHg. For the same compound, in series [2] (setting [4]), the “n50 (Hill coefficient at 50% saturation)” value is 2.4 and the P50e/P50c is reported as 5.1. For the same compound, the “P50e (oxygen pressure at which Hb is 50% saturated with oxygen in the presence of the effector)” value in series [3] (Table IV) is listed as 26 mmHg.

Take `CC1CCCC1(Oc1ccc(CC(=O)Nc2ccc3c(c2)CCC3)cc1)C(=O)O` (stereo not drawn) [Compound 7]: the “Whole Blood Δp50 mm Hg” value in series [1] (Table II) is on record as 25.0 mm Hg. Besides, in series [2] (setting [4]), the “n50 (Hill coefficient at 50% saturation)” value is reported as 2.6 and the P50e/P50c amounted to 2.8. The “P50e (oxygen pressure at which Hb is 50% saturated with oxygen in the presence of the effector)” value in series [3] (Table IV) came out at 14 mmHg.

As for `COCC(C)(Oc1ccc(CC(=O)Nc2cc(C)cc(C)c2)cc1)C(=O)O` (stereo not drawn) [Compound 10, 2-[4-[[(3,5-dimethylanilino)carbonyl]methyl]phenoxy]-3-methoxy-2-methylpropanoic acid], the “Whole Blood Δp50 mm Hg” value in series [1] (Table II) turned out to be 24 mm Hg. In addition, in series [2] (setting [4]), the “n50 (Hill coefficient at 50% saturation)” value was 2.4 and the P50e/P50c worked out at 1.7. Further, the “P50e (oxygen pressure at which Hb is 50% saturated with oxygen in the presence of the effector)” value in series [3] (Table IV) stood at 8.4 mmHg.

These data come from patent publication US6894185B2, “Substituted chiral allosteric hemoglobin modifiers” (Allós Therapeutics, Inc., priority 1999, dated 2005).
